# Source: article PMC11211886 (Frontiers in Pharmacology, 2024)
# “And” between values parts separate entries of the source, which are not always exact repeats. Equal values may be shown once.
# Key:
# CYP2C19 [1] = biological target: T1, CYP2C19 (Homo sapiens, UniProt P33261); test: Reversible CYP inhibition in HLM, CYP2C19 (S-mephenytoin); type: in vitro ADME; details: for enzyme activity remaining: CYP2C19, HLM
# T1 construct: tissue Life Technologies (Durham, NC, USA); host or cells: human liver microsomes
# T1 sequence (P33261 whole entry): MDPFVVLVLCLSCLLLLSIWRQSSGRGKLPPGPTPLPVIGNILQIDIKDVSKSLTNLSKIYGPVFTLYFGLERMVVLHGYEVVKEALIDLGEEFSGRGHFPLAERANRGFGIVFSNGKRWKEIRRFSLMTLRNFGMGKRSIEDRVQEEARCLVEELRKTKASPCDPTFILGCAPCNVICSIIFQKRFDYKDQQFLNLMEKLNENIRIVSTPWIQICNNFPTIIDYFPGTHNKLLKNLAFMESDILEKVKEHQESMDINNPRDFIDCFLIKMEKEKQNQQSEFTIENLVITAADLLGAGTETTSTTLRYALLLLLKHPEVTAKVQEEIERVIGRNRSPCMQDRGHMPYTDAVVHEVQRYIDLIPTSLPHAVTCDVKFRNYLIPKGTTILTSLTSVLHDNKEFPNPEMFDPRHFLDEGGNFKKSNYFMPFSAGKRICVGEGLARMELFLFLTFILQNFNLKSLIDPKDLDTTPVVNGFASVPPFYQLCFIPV
# Method: The markers used to determine the activities of CYP isoforms were phenacetin O-deethylation for CYP1A2 (probe substrate: 50 µM phenacetin), bupropion hydroxylation for CYP2B6 (probe substrate: 70 µM bupropion), paclitaxel 6α-hydroxylation for CYP2C8 (probe substrate: 10 µM paclitaxel), diclofenac 4′-hydroxylation for CYP2C9 (probe substrate: 5 µM diclofenac), S-(+)-mephenytoin 4′-hydroxylation for CYP2C19 (probe substrate: 20 µM S-(+)-mephenytoin), dextromethorphan O-demethylation for CYP2D6 (probe substrate: 6 µM dextromethorphan), chlorzoxazone 6′-hydroxylation for CYP2E1 (probe substrate: 70 µM chlorzoxazone), and testosterone 6β-hydroxylation and midazolam 1′-hydroxylation for CYP3A4/5 (probe substrate: 45 µM testosterone and 5 µM midazolam). […] Alpha-naphthoflavone (0.04 µM), 2-phenyl-2-(1-piperidinyl)propane (5 µM), quercetin (1 µM), sulfaphenazole (0.5 µM), ticlopidine (4 µM), quinidine (0.2 µM), diethyldithiocarbamate (20 µM), and ketoconazole (0.05 µM) were used as positive inhibitors of CYP1A2, 2B6, 2C8, 2C9, 2C19, 2D6, 2E1, and 3A4, respectively. The vehicle control was prepared in the same composition as inhibitor solutions but free of inhibitors. The concentrations of probe substrates were close to Km values that were determined in-house and within the range recommended by the FDA ([Huang et al., 2007]). Reaction mixtures were incubated at 37°C for 5, 20, or 30 min, depending on the probe substrates of CYP isoforms. The reactions were terminated by adding cold acetonitrile containing IS, and the terminated incubation mixtures were centrifuged at 3,000 g for 10 min before LC-MS/MS analysis.
# CYP2C19 [2] = test: CYP induction in human hepatocytes, CYP2C19 enzyme activity; type: in vitro ADME
# Method: (§1) […] […] […] Enzyme activity for each CYP isoform was reported as a fold change over vehicle control and the percent of positive control (detailed calculation in Supplementary 1.1). Hepatocytes were harvested with a lysis buffer from RNeasy 96 Kit (Qiagen Inc., Germantown, MD, USA) to isolate RNA, which was analyzed by real-time quantitative polymerase chain reaction (RT-PCR). […] Emax (the maximal observed induction) and EC50 (the concentration that supports half-maximal induction) were estimated by non-linear regression of fold increase in CYP mRNA expression versus concentration plots.
# The fold of vehicle control and the percent of positive control were calculated with the formulas below:
# Fold of vehicle control = CYPs activity of test compound (or positive control) treated sample / CYPs activity of vehicle control treated sample
# (§2) % of positive control = [(fold change in treated sample)-1] / [(fold change in positive control)-1] × 100
# Based on the enzyme activity, a minimum of 2-fold increase compared to vehicle control for the positive control and ≥40% of the positive control for the test article was considered as the cutoff for a positive signal in in vitro induction assay.
# [3] = Metabolic stability in human liver microsomes; type: in vitro ADME
# Method: FMO was deactivated by heating liver microsomes at 45°C for 5 min. […] The natural logarithm of the percentage of the drug remaining was plotted against the incubation time, and the slope of the linear regression (-k) was converted to in vitro half-lives (t1/2) using the following equation: […] (1) metabolic clearance is the major mechanism of clearance; (2) liver is the major organ of clearance; and (3) oxidation is the major metabolic pathway. CLint,in vitro=k / Cmicrosomes , Scaled CLint,in vivo=CLint,in vitro×microsomes yield×liver weight, where Cmicrosomes means the experimental protein concentration (0.5 mg/mL) in the incubation system. […] Then, the scaled in vivo intrinsic clearance was used to predict the systemic clearance (equal to the hepatic clearance) using the well-stirred venous equilibration model ([Houston, 1994]).
# CYP2C9 mRNA = test: CYP induction in human hepatocytes, CYP2C9 mRNA (RT-PCR)
# Method: as §1, §2
# Based on the gene expression, a minimum of 4-fold increase of positive control compared to vehicle control, a minimum of 2-fold increase of the test article compared vehicle control and increased in a concentration-dependent manner was considered as the cutoff for a positive signal in in vitro induction assay.
# CYP2C9 = biological target: T2, CYP2C9 (Homo sapiens, UniProt P11712); test: Time-dependent CYP inhibition in HLM, CYP2C9; type: in vitro ADME; details: 10 μM, 30 min pre-incubation with NADPH
# T2 construct: tissue Life Technologies (Durham, NC, USA); host or cells: human liver microsomes
# T2 sequence (P11712 whole entry): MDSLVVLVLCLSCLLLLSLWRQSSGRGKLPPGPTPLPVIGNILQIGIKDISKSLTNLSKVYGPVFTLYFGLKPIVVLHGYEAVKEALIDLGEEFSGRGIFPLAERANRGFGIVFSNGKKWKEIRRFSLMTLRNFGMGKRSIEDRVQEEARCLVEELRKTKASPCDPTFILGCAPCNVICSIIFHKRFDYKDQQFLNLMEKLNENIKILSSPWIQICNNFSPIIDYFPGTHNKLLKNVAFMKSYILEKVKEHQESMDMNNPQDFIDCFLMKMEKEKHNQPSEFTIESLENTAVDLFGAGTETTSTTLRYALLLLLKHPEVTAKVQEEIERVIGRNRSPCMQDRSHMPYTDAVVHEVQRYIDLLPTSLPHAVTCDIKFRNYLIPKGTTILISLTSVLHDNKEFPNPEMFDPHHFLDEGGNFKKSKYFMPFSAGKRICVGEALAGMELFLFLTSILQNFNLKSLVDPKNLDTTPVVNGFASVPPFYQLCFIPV
# Method: The procedure of time-dependent CYP inhibition was similar to that used for CYP reversible inhibition, as mentioned above, except that a pre-incubation step was added. […] Another appropriate volume of the NADPH-regenerating system and probe substrate were added to initiate the CYP isoform enzyme activity test step. For this step, the incubation period was 10 min, except for CYP2B6, CYP2C8, and CYP3A4/5 (probe substrate: midazolam), which was 3 min to make sure the reaction was under initial linear rates. After incubation for the designated time periods at 37°C, the ice-cold acetonitrile containing IS was added to quench the reaction. […] (Ainactivator/[…] represents the enzyme activity remaining due to the inhibition by the diluted inactivator in the enzyme activity test step, and (Ainactivator/[…] represents the remaining enzyme activity due to pre-incubation loss plus inhibition by the diluted inactivator in the enzyme activity test step.
compound,measurement,setting,value
C[C@H](Nc1ncnc(N)c1C#N)c1cc2ncc(Cl)n2nc1-c1ccccc1 [Amdizalisib],enzyme activity remaining,CYP2C19 [1]; 0.08 μM,97.1% and 111%
same,enzyme activity remaining,CYP2C19 [1]; 0.4 μM,105%
same,enzyme activity remaining,"CYP2C19 [1]; 0.4 μM, listed as amdizalisib",99.5%
same,enzyme activity remaining,CYP2C19 [1]; 2 μM,102% and 98.0%
same,enzyme activity remaining,CYP2C19 [1]; 10 μM,96.6% and 88.1%
same,enzyme activity remaining,CYP2C19 [1]; 50 μM,68.6% and 65.9%
same,IC50,"CYP2C19 [1]; HLM, reversible, without pre-incubation",> 50 µM
same,Enzyme activity Percent of PC (%),"CYP2C19 [2]; CYP2C19, donor eight, 0.3 µM",2.58%
same,Enzyme activity Percent of PC (%),"CYP2C19 [2]; CYP2C19, donor eight, 3 µM",-3.72%
same,Enzyme activity Percent of PC (%),"CYP2C19 [2]; CYP2C19, donor eight, 20 µM",-16.6%
same,Enzyme activity Percent of PC (%),"CYP2C19 [2]; CYP2C19, donor four, 0.3 µM",-2.17%
same,Enzyme activity Percent of PC (%),"CYP2C19 [2]; CYP2C19, donor four, 3 µM",-13.5%
same,Enzyme activity Percent of PC (%),"CYP2C19 [2]; CYP2C19, donor four, 20 µM",-28.3%
same,Enzyme activity Percent of PC (%),"CYP2C19 [2]; CYP2C19, donor one, 0.3 µM",6.39%
same,Enzyme activity Percent of PC (%),"CYP2C19 [2]; CYP2C19, donor one, 3 µM",1.83%
same,Enzyme activity Percent of PC (%),"CYP2C19 [2]; CYP2C19, donor one, 20 µM",-19.2%
same,induction of CYP2C19 enzyme activity,"CYP2C19 [2]; up to 20 µM, all three donors",no induction potential
same,Predicted CL sys,"[3]; female human liver microsomes, FMO deactivation",5.07 mL/min/kg
same,CLint scaled at 1 µM,"[3]; female, human, microsomes, pH 7.4, Predicted CL int, iv vivo",5.78 mL/min/kg
same,half-life at 1 µM,"[3]; female, human, microsomes, pH 7.4, in vitro t1/2",2.32 h
same,parent drug remaining,"[3]; male, human, microsomes, 2 h, 1 µM, pH 7.4",> 80%
same,induction on CYP2C9 mRNA expression,CYP2C9 mRNA; 20 uM,">2-fold induction on CYP1A2, 2B6, 3A4, 2C9 mRNA expression at 20 uM"
same,Gene expression Percent of PC (%),"CYP2C9 mRNA; CYP2C9, donor eight, 0.3 µM",5.23%
same,Gene expression Percent of PC (%),"CYP2C9 mRNA; CYP2C9, donor eight, 3 µM",20.0%
same,Gene expression Percent of PC (%),"CYP2C9 mRNA; CYP2C9, donor eight, 20 µM",54.5%
same,Gene expression Percent of PC (%),"CYP2C9 mRNA; CYP2C9, donor four, 0.3 µM",16.1%
same,Gene expression Percent of PC (%),"CYP2C9 mRNA; CYP2C9, donor four, 3 µM",28.8%
same,Gene expression Percent of PC (%),"CYP2C9 mRNA; CYP2C9, donor four, 20 µM",81.6%
same,Gene expression Percent of PC (%),"CYP2C9 mRNA; CYP2C9, donor one, 0.3 µM",12.7%
same,Gene expression Percent of PC (%),"CYP2C9 mRNA; CYP2C9, donor one, 3 µM",18.0%
same,Gene expression Percent of PC (%),"CYP2C9 mRNA; CYP2C9, donor one, 20 µM",59.0%
same,activity loss of CYP2C9,CYP2C9,14.6%
